What was measured:
Format in all cases: physicochemical
[1] = Stability of active ingredients, Example 10 composition (benzoyl peroxide/clindamycin); details: composition 4.84% BPO, 1.08% clindamycin, Initial 4.84%
Source text: A 2-week analysis and 6-month analysis of the composition was undertaken following the procedure of Example 2.

[2] = Stability of combined active ingredients, Example 6 composition (benzoyl peroxide/tazarotene/clindamycin); details: 0.096% tazarotene, […] clindamycin, Initial […], 2 weeks
Experimental: Measurements were taken at the end of 2 weeks. The composition was stored at 2 different temperatures, i.e., 25° C. and 30° C. […]

[3] = Stability of active ingredients, Example 9 composition (benzoyl peroxide/tazarotene); details: composition 5.18% BPO, 0.099% tazarotene, Initial 5.18%
Source text: Tables 9 and 10 show the stability of the active ingredients in a composition containing 5.18% of benzoyl peroxide and 0.099% of tazarotene.
A 2-week and 6-month analysis of the composition was undertaken following the procedure of Example 2.

O=C(OOC(=O)c1ccccc1)c1ccccc1 [Benzoyl Peroxide]
Benzoyl Peroxide (BPO) (as % w/w) ([1]; 6° C., 2 weeks): 5.53 % w/w
Benzoyl Peroxide (BPO) (as % w/w) ([1]; 6° C., 6 months): 4.81 % w/w
Benzoyl Peroxide (BPO) (as % w/w) ([1]; 25° C., 2 weeks): 5.01 % w/w
Benzoyl Peroxide (BPO) (as % w/w) ([1]; 25° C., 6 months): 4.85 % w/w
Benzoyl Peroxide (BPO) (as % w/w) ([2]; 25° C.): 1.06 % w/w
Benzoyl Peroxide (BPO) (as % w/w) ([2]; 30° C.): 1.06 % w/w
Benzoyl Peroxide (BPO) (as % w/w) ([3]; 6° C., 6 months): 5.2 % w/w
Benzoyl Peroxide (BPO) (as % w/w) ([3]; 25° C., 2 weeks): 5.21 % w/w
Benzoyl Peroxide (BPO) (as % w/w) ([3]; 25° C., 6 months): 5.14 % w/w

— US9107844B2, “Topical skin treating compositions” (STIEFEL LABORATORIES INC., priority 2006, dated 2015)
